One assay has as its system SH-SY5Y cells. As to the kind of experiment: Cell viability assay (MTS reduction) against 4-Br-A23187 challenge. The assay is classed as cell-based. To be noted: compound 10 nM, 4-Br-A23187 (2 μM) for 24 h; for Relative Cytoprotective capacity: Control = 100, Vehicle = 0; for viability at 0.01 µM: Homo sapiens, SH-SY5Y, Control = 100, Vehicle = 0, read-out: Relative Cytoprotective capacity. How it is done:
SH-SY5Y cells cultured in DMEM/F12 media supplemented with 10% FBS were seeded in 96-well microplates at 150,000 cells/cm^2. After 24 h, cells were depleted from FBS and kept in culture for 24 h before the experiment. A stock solution was prepared by dissolving the calcium ionophore 4-Br-A23187 (Calbiochem Cat. N^o 100107) in DMSO at 25 mM. Cells were then treated with 4-Br-A23187 (2 μM), hydrogen peroxide (300 μM) or the mitochondrial toxin rotenone (25 μM) in the presence of vehicle or Compound of the Invention for 24 h. Cell death was determined by measurements of LDH release according to the Cytotoxicity Detection KitPlus (Roche, Mannheim, Germany). Cell viability was determined by measuring the capacity of cells to metabolize MTS tetrazolium (MTS) according to the Cytotoxicity Detection KitPlus (Roche, Mannheim, Germany) and MTS reduction was assessed by the CellTiter 96® AQueous One Solution Cell Proliferation assay (Promega Corporation, Madison, Wis., USA). Compounds were screened at 10 nM, using DMSO as vehicle. Assay results for the experiments with Br-A23187 were presented as the MTS reduction capacity (cell viability) of untreated cells (control), 4-Br-A23187-treated cells (vehicle), and co-incubation of Br-A23187 with Compounds of the Invention treated cells and using […] (FCCP) at 10 μM for 30 min as a control. This assay assesses the ability of the test compounds to protect against cell death that was mediated by mitochondrial dysfunction. In the assay, the calcium ionophore 4-Br-A23187 was used to challenge the cells, causing calcium levels to rise in mitochondria, which leads to depolarization and cell death. Test compounds were assessed for their ability to prevent cell death in response to challenge with 4-Br-A23187.
For orientation: Tetrazolium assays rely on reduction of a dye to a coloured formazan, in cell work by metabolically active cells.

Assay [1] has as its system New Zealand White rabbits. The conditions noted are these: conscious rabbits, intravenous cumulative doses, positive control.
Description: Four adult New Zealand White rabbits of both sexes are chosen for these studies. […] The conscious rabbits are implanted with an intravenous catheter in marginal ear vein or by centrally by intracisternal catheter interfaced to a pressure transducer connected to a suitable recorder. To unveil peripheral effects of test compound, two sets of acute studies are conducted in rabbits. In the first set of studies, test compound is dosed to rabbit intravenously for a dose-response study with cumulative doses starting 0 (Ringer's Lock solution as a vehicle), 0.1, 0.3, 1, 3.2 and 10 mg/kg where each dose is tested on a separate day. A single intravenous bolus dose at 3 mg/kg is given and a time-course study is conducted in the second set of studies. Systolic, diastolic, mean and diastolic blood pressures are recorded in both the studies. Data collections are made for 3 hours in the second set of studies. Heart rate (HR) is derived electronically using an algorithm to determine HR from pulse interval. In a separate set of studies, Clonidine (positive control) is tested where all experimental procedures including dose-regimen are identical to that of the studies with test compound.

`Cc1ccc2c(c1)c1c(n2C)C(C)(CCc2nc(-c3ccccc3)cs2)CN(C)C1` (stereo not shown) [C48]: in the assay on SH-SY5Y cells, the “Relative Cytoprotective capacity” value amounted to 52.14.

As to `Cc1ccc2c(c1)c1c3n2CC(c2ccc(F)cc2)CCC3(C)CN(C)C1` (stereo not shown) [D7], the viability at 0.01 µM in the assay with SH-SY5Y cells came out at 72.1%.

For the compound `Cc1ccc2c(c1)c1c3n2CC=C(c2ccc(F)cc2)CC3(C)CN(C)C1` (stereo not shown) [D5], the viability at 0.01 µM in the assay on SH-SY5Y cells worked out at 72.1%.

For the compound `Clc1cccc(Cl)c1N=C1NCCN1` [Clonidine], in assay [1], the “maximum drop of arterial blood pressure” value was −6 mmHg.

Regarding `Cc1ccc2c(c1)c1c(n2C)C(C)(CCc2ccc(C)nc2)CN(C)C1` (stereo not shown) [C45], the “Relative Cytoprotective capacity” value with SH-SY5Y cells is listed as 4.348.

On to `Cc1ccc2[nH]c3c(c2c1)CN(C)CC3(C)CCc1ccccc1` (stereo not shown) [C43], for which the “Relative Cytoprotective capacity” value in the assay on SH-SY5Y cells came out at 9.618.

With `Cc1cc(C#Cc2ccncc2)c2[nH]c3c(c2c1)CN(C)CC3` [A5], the viability at 0.01 µM in the assay with SH-SY5Y cells is 28.8%.

Consider `Cc1ccc2c(c1)c1c3n2CC(c2ccc(F)cc2)CC3(C)CN(C)C1` (stereo not shown) [D2], for which, in the assay with SH-SY5Y cells, the viability at 0.01 µM worked out at 38.4%.

For `Cc1ccc2[nH]c3c(c2c1)CN(C)CC3(C)CCc1ccc(C)nc1` (stereo not shown) [C46], the “Relative Cytoprotective capacity” value in the assay on SH-SY5Y cells was −0.04527.

On to `Cc1ccc2c(c1)c1c3n2CC(c2ccncc2)OC(C)CC3(C)CN(C)C1` (stereo not shown) [D8], for which, in the assay with SH-SY5Y cells, the viability at 0.01 µM turned out to be 73.1%.

On to `Cc1cc(CCc2ccc(C)nc2)c2[nH]c3c(c2c1)CN(C)CC3` [A2], for which, in the assay on SH-SY5Y cells, the viability at 0.01 µM is -4.41%.

Regarding `Cc1cc(C#Cc2ccc(C)nc2)c2[nH]c3c(c2c1)CN(C)CC3` [A6], the viability at 0.01 µM with SH-SY5Y cells amounted to 27.6%.

Consider `Cc1ccc2c(c1)c1c(n2C)C(C)(CCc2ccccc2)CN(C)C1` (stereo not shown) [C44], for which the “Relative Cytoprotective capacity” value in the assay on SH-SY5Y cells was −0.6342.
